System: Calu-3 cells
Assay: Transcriptome analysis (RNA-Seq, differential expression and differential alternative splicing) of compound 1-treated Calu-3 cells
Type: cell-based, human
Conditions: 18 h; for delta PSI: 10 μM
Description: Transcriptome analysis for compound 1-treated Calu-3 cells RNAs were extracted using RNeasy Mini kit (QIAGEN, Hilden, Germany) from Calu-3 cells, treated with 10 μM compound 1 or 0.1% DMSO for 18 h, and applied for RNA-Seq analysis. Three technical replicates for RNA-Seq, where each experiment was independently conducted three times from a stocked total RNA. RNA-seq reads were mapped to the human genome sequences (GRCh38) using STAR (ver. 2.7.1a, https://github.com/alexdobin/STAR) with ENCODE options, using the Ensembl genome annotation (ver. 102). Raw reads were counted with bam files, and TPM values were calculated using RSEM v1.2.31 (https://github.com/deweylab/RSEM). Differentially expressed genes were identified using the method described above. Differential alternative splicing (DAS) events were analyzed with the method previously described (Sakuma et al., 2015) using the rMATS program (http://rnaseq-mats.sourceforge.net/rmats4.1.1/). DAS was defined by the following criteria: FDR<0.01, read counts≥15, and delta Percent Spliced-In (PSI)≥0.05. The DAS events were compared with the gene annotation information, the event types were then classified into events on the exons constituting the productive mRNAs, events on additional exons/regions of the productive mRNAs, and others. For characterizing gene set and transcriptome profiles, the Metascape website (https://imetascape.org/) and Gene Set Enrichment Analysis (GSEA, https://ww.gsea-maigdb.org/gsea/) were used. The same samples were also used for RT-PCR.

Q: For N=C1NC(=O)/C(=C/c2ccc3c(c2)CCO3)S1 [compound 1], which “delta PSI” value (AAMP Intron between E5-E7 RI) is on record?
A: −0.307

Q: And the “delta PSI” value (AC107871.1 E2-E3 SE additional exon)?
A: −0.333

Q: What about the “delta PSI” value (AL117339.4 E2 SE) of the same compound?
A: 0.318

Q: And the “delta PSI” value (AL136531.2 E2-E3 SE additional exon)?
A: −0.418

Q: What about the “delta PSI” value (AL163636.1 E2 SE) of the same compound?
A: 0.331

Q: What about the “delta PSI” value (APOL1 E3 A3SS) of the same compound?
A: −0.448

Q: And the “delta PSI” value (CABYR E4 A5SS)?
A: 0.309

Q: What about the “delta PSI” value (CDK5RAP2 E32 SE) of the same compound?
A: 0.313

Q: And the “delta PSI” value (CENPE E17 SE)?
A: 0.422

Q: And the “delta PSI” value (CFAP298 Intron between E5-E7 RI)?
A: −0.451

Q: What about the “delta PSI” value (CLK1 E4 SE) of the same compound?
A: 0.331

Q: What about the “delta PSI” value (CLK4 E4 SE) of the same compound?
A: 0.37

Q: What about the “delta PSI” value (CLK4 Intron between E3-E4 RI) of the same compound?
A: −0.346

Q: What about the “delta PSI” value (CLK4 Intron between E4-E5 RI) of the same compound?
A: −0.401

Q: And the “delta PSI” value (CYLD E2-E3 SE additional exon)?
A: −0.307

Q: And the “differential expression, number of genes” value (Calu-3, 10 μM)?
A: 98 genes

Q: What about the “splice alterations yielding protein-coding variants, number of genes” value (Calu-3, 10 μM) of the same compound?
A: 63 genes

Q: And the “delta PSI” value (DCUN1D2 E4-E5 SE additional exon)?
A: −0.438

Q: What about the “delta PSI” value (DMD E71 SE) of the same compound?
A: 0.365

Q: What about the “delta PSI” value (DNHD1 Intron between E42-E43 RI) of the same compound?
A: −0.31

Q: What about the “delta PSI” value (DNM1 E14 SE) of the same compound?
A: 0.342

Q: What about the “delta PSI” value (DYNC1LI1 Intron between E8-E10 RI) of the same compound?
A: −0.778

Q: What about the “delta PSI” value (EPB41 E16-E17 SE additional exon) of the same compound?
A: −0.301

Q: What about the “delta PSI” value (FAAP100 E2 A5SS) of the same compound?
A: −0.318

Q: And the “delta PSI” value (GALT Intron between E2-E6 RI)?
A: −0.374

Q: And the “delta PSI” value (GK E9 SE)?
A: 0.322

Q: What about the “delta PSI” value (HAT1 Intron between E6-E8 RI) of the same compound?
A: −0.584

Q: And the “delta PSI” value (HERC3 E17 SE)?
A: 0.309

Q: And the “delta PSI” value (HERC4 E17 SE)?
A: 0.38

Q: And the “delta PSI” value (IMPDH2 Intron between E3-E5 RI)?
A: −0.376

Q: What about the “delta PSI” value (KANSL3 E3 A3SS) of the same compound?
A: −0.309

Q: And the “delta PSI” value (KTN1 E41 SE)?
A: 0.304

Q: And the “delta PSI” value (LIMCH1 E9 SE)?
A: 0.42

Q: And the “delta PSI” value (LRP8 E5 SE)?
A: 0.392

Q: What about the “delta PSI” value (LRRC6 E5 SE) of the same compound?
A: 0.391

Q: What about the “delta PSI” value (LRRC75B E1-E2 SE additional exon) of the same compound?
A: −0.338

Q: What about the “delta PSI” value (MAP3K7 E12 SE) of the same compound?
A: 0.404

Q: What about the “delta PSI” value (MCTP1 E8 SE) of the same compound?
A: 0.367

Q: What about the “delta PSI” value (METTL26 E2 SE) of the same compound?
A: 0.3

Q: And the “delta PSI” value (MON2 E28 SE)?
A: 0.345

Q: And the “delta PSI” value (MPP3 E11 SE)?
A: 0.32

Q: What about the “delta PSI” value (MSL3 Intron between E4-E6 RI) of the same compound?
A: −0.485

Q: And the “delta PSI” value (MYO6 E34 SE)?
A: 0.405

Q: What about the “delta PSI” value (MYOM1 E18 SE) of the same compound?
A: 0.344

Q: And the “delta PSI” value (NAV2 E28 SE)?
A: 0.437

Q: And the “delta PSI” value (NEK1 E17 SE)?
A: 0.367

Q: And the “delta PSI” value (NGDN Intron between E4-E7 RI)?
A: −0.302

Q: What about the “delta PSI” value (OBSL1 E12 SE) of the same compound?
A: 0.369

Q: And the “delta PSI” value (PCGF3 E3-E4 SE additional exon)?
A: −0.318

Q: What about the “delta PSI” value (PDE9A E5 SE) of the same compound?
A: 0.378

Q: And the “delta PSI” value (PI4KB E2 SE)?
A: 0.421

Q: What about the “delta PSI” value (PNKP Intron between E14-E16 RI) of the same compound?
A: −0.3

Q: What about the “delta PSI” value (PPM1K E2 SE) of the same compound?
A: 0.317

Q: What about the “delta PSI” value (RBPMS E8 SE) of the same compound?
A: 0.301

Q: And the “delta PSI” value (RPGR E14 SE)?
A: 0.448

Q: And the “delta PSI” value (RPL3 Intron between E7-E9 RI)?
A: −0.381

Q: What about the “delta PSI” value (RPL13A Intron between E2-E4 RI) of the same compound?
A: −0.654

Q: What about the “delta PSI” value (RTN4 E3 SE) of the same compound?
A: 0.361

Q: What about the “delta PSI” value (SAMD9L Partial Intron on E3 RI) of the same compound?
A: 0.364

Q: What about the “delta PSI” value (SLC25A29 E2-E3 SE additional exon) of the same compound?
A: −0.314

Q: And the “delta PSI” value (SMARCA1 E13 SE)?
A: 0.367

Q: What about the “delta PSI” value (SNX14 E16 SE) of the same compound?
A: 0.336

Q: What about the “delta PSI” value (SPATA20 E1-E2 SE additional exon) of the same compound?
A: −0.319

Q: And the “delta PSI” value (TRIM2 E2 SE)?
A: 0.372

Q: What about the “delta PSI” value (TRMU Intron between E9-E11 RI) of the same compound?
A: −0.333

Q: And the “delta PSI” value (WNK1 E11 SE)?
A: 0.517

Q: What about the “delta PSI” value (ZNF519 E3 A3SS) of the same compound?
A: 0.316

From patent US20240358684A1, “METHOD FOR ENHANCING INNATE IMMUNE RESPONSE” (Kyoto University, priority 2021, published 2024)
